# Measurements reported in patent US20260167622A1, “PAN-KRAS DEGRADING AGENT, AND PREPARATION METHOD THEREFOR AND USE THEREOF” (LEADINGTAC PHARMACEUTICAL (SHAOXING) CO., LTD., priority 2022, published 2026).
# What was measured:
# Assay type in all cases: cell-based
# [1] = target: T1, KRAS WT (expanded) protein in MKN1 cells (Homo sapiens, UniProt P01116); experiment: KRAS degradation assay (Western Blot) in MKN1 cells; details: for DC50: 24 h; for Dmax: MKN-1, 24 h
# T1 construct: endogenous in cells; host or cells: MKN1 (MKN-1)
# Excerpt: Test Example 5: KRAS G12C, KRAS G12D, KRAS G12V, KRAS G13D, and KRAS WT (Expanded) Degradation Assays
# The degradation effect of the compounds on KRAS was investigated on KRAS G12C mutant human non-small cell lung cancer cell NCI-H358, KRAS G12D mutant human metastatic pancreatic cancer cell AsPc-1, KRAS G12D mutant human lung cancer cell A427, KRAS G12V mutant human colorectal cancer cell SW620, KRAS G12V mutant human lung cancer cell SW900, KRAS G13D mutant human colorectal cancer epithelial cell DLD-1, and KRAS WT human gastric cancer cell MKN-1. The specific procedures were as follows: 0.95 mL of cells were seeded into each well of a 24-well cell culture plate to achieve a cell density of 5×10^5 cells/well; and the cell plate was incubated in an incubator at 37° C. with 5% CO2 overnight. Then 50 μL of the compound solution after dilution was added to each of the wells with the corresponding cells, so that the final concentration of the compound was in a range of 0.03-3000 nM. The final concentration of DMSO was 0.25%. After the compounds were added, the cell plate was incubated in an incubator at 37° C. with 5% CO2 for 24 h. The culture medium in the 24-well cell culture plate was then removed, and the plate was washed twice with 1×PBS (KeyGEN). 120 μL of RIPA (strong) lysis buffer (Beyotime) (supplemented with 1 mM phenylmethylsulfonyl fluoride, a protease inhibitor mixture (Beyotime), and a protease phosphatase inhibitor mixture (Beyotime)) was added to lyse adherent SW900 cells at the bottom of the cell culture plate. After the plate was left to stand on ice for 30 min, the protein lysate in each well was transferred to a 1.5 mL centrifuge tube and centrifuged at 15000 g for 20 min at 4° C. The cell lysate supernatants after centrifugation were cryopreserved in a refrigerator at −80° C. for later use.
# After the samples of the cell lysate supernatants that had been prepared were thawed from the refrigerator at −80° C., the total protein concentrations of the cell lysates were determined using a BCA protein quantification kit (Tiangen). The total protein concentrations of the samples were then adjusted to 0.5 μg/μL with PBS and 5×SDS-PAGE protein loading buffer (Beyotime), and the samples were incubated in a water bath at 100° C. for 15 min. The samples were then incubated in an ice bath for 5 min and centrifuged at 14000 g for 1 min at 4° C., and the supernatants were mixed well as loading samples for the Western Blot assay. The samples were loaded into wells of a 10% precast gel (KeyGEN) with a loading volume of 10 μL (total protein: 5 μg), a sufficient Tris-MOPS-SDS running buffer (Adamas) was added, and then electrophoresis was performed at a constant voltage of 120 V for 55 min. After the electrophoresis, the proteins on the gel were transferred to PVDF membranes at a constant current of 250 mA for 55 min. After the membrane transfer, the PVDF membranes were incubated in 1× Quick Block blocking buffer (Beyotime)at room temperature for 30 min. After the blocking, the PVDF membranes were separately incubated at 4° C. overnight with the KRAS antibody (Abcam) diluted in a ratio of 1:1000 and the β-actin antibody (Abcam) diluted in a ratio of 1:2000 in 5% BSA as the diluent, and then washed with 1×TBST buffer (2.4 g of Tris, 8.8 g of NaCl, 1.5 mL of Tween 20, with pH adjusted to 7.4, with the volume brought to 1 L) 3 times for 10 min/time. The membranes were incubated with a secondary antibody (Abcam) diluted in 5% BSA at room temperature for 2 h, and then washed with 1×TBST buffer 3 times for 10 min/time. Finally, the membranes were incubated with Clarity Western ECL Substrate (BIO-RAD) for 5 min for luminescence and color development, and a ChemiScope 6200 Touch chemiluminescence imaging system (Clinx) was used for color development and protein mapping. Gray value analysis of the protein maps was performed using the chemiluminescence analysis software (Clinx). […]
# [2] = target: T2, KRAS G12V protein in SW900 cells (Homo sapiens, UniProt P01116, G12V); experiment: KRAS degradation assay (Western Blot) in SW900 cells; details: 24 h
# T2 construct: endogenous in cells; host or cells: SW900
# Procedure, shortened: (§1)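 DC50 and Dmax were fitted from KRAS band intensity, corrected to β-actin and expressed against untreated control, after Western blotting of 5 μg lysate protein. Cells were exposed for 24 h at 37 °C to 0.03-3000 nM compound (final) with 0.25% DMSO.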
# [3] = target: T3, KRAS G13D protein in DLD-1 cells (Homo sapiens, UniProt P01116, G13D); experiment: KRAS degradation assay (Western Blot) in DLD-1 cells; details: 24 h
# T3 construct: endogenous in cells; host or cells: DLD-1
# Procedure, shortened: as §1
# [4] = tested on: KRAS G12D mutant human gastric cancer cell AGS; experiment: 3D cell proliferation inhibition assay, AGS; details: 168 h, 3D culture, 7 days, CTG
# Procedure, shortened: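 Cells were seeded in low-adsorption 96-well plates at 5×10^2 cells/well (MKN1 at 1×10^3) with compounds at final 10000-0.026 nM, 0.2% DMSO, and grown 7 days at 37° C. CTG luminescence gave inhibition relative to DMSO and medium-only controls, and IC50 came from a log-concentration curve fit.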
# [5] = target: T4, KRAS G12D protein in AsPc-1 cells (Homo sapiens, UniProt P01116, G12D); experiment: KRAS degradation assay (Western Blot) in AsPc-1 cells; details: for DC50: 24 h; for Dmax: ASPC1, 24 h
# T4 construct: endogenous in cells; host or cells: AsPc-1
# Procedure, shortened: as §1
# T3 sequence (P01116 1-188 isoform P01116-2 G13D): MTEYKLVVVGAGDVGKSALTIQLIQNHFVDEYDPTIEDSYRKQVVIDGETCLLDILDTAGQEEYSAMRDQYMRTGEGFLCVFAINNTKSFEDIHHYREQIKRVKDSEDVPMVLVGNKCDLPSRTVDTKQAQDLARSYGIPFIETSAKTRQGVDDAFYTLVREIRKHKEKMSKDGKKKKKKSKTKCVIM
# T2 sequence (P01116 1-188 isoform P01116-2 G12V): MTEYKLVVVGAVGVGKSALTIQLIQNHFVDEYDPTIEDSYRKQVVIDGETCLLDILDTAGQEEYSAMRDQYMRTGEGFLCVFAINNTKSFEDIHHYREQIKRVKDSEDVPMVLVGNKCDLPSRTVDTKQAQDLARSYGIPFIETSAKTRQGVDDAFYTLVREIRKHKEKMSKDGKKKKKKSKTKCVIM
# T1 sequence (P01116 1-188 isoform P01116-2): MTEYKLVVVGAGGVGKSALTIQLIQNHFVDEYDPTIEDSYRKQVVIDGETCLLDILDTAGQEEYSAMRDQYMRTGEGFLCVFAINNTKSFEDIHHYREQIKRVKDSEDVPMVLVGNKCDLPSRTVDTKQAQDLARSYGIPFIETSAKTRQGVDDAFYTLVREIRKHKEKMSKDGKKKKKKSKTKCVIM
# T4 sequence (P01116 1-188 isoform P01116-2 G12D): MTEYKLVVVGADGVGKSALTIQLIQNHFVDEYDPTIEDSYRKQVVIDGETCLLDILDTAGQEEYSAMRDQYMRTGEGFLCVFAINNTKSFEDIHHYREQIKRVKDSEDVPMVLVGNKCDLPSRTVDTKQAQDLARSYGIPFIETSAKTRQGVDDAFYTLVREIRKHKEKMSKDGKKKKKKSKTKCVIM
DC50 [1],Dmax [1],DC50 [2],Dmax [2],DC50 [3],Dmax [3],IC50 [4],DC50 [5],Dmax [5],SMILES
≤ 50 nM,80 to 100%,≤ 50 nM,80 to 100%,≤ 50 nM,80 to 100%,≤ 50 nM,≤ 50 nM,80 to 100%,"CCc1cccc2cc(O)cc(-c3ncc4c(N5CCC[C@@](C)(O)C5)nc(OCC5(CN6CCN(CC7CCC8(CC7)CCN(C(=O)c7ccc(Cl)c(N9CCC(=O)NC9=O)c7)CC8)CC6)CC5)nc4c3F)c12 [Example 3, (R)-1-(2-chloro-5-(9-((4-((1-(((7-(8-ethyl-3-hydroxynaphthalen-1-yl)-8-fluoro-4-(3-hydroxy-3-methylpiperidin-1-yl)pyrido[4,3-d]pyrimidin-2-yl)oxy)methyl)cyclopropyl)methyl)piperazin-1-yl)methyl)-3-azaspiro[5.5]undecane-3-carbonyl)phenyl)dihydropyrimidine-2,4(1H,3H)-dione]"
≤ 50 nM,80 to 100%,≤ 50 nM,80 to 100%,≤ 50 nM,80 to 100%,≤ 50 nM,≤ 50 nM,80 to 100%,"C#Cc1c(F)ccc2cc(O)cc(-c3ncc4c(N5CCC[C@@](C)(O)C5)nc(OCC5(CN6CCN(CC7CCC8(CC7)CCN(C(=O)c7ccc(OC)c(N9CCC(=O)NC9=O)c7)CC8)CC6)CC5)nc4c3F)c12 [Example 7, (R)-1-(5-(9-((4-((1-(((7-(8-ethynyl-7-fluoro-3-hydroxynaphthalen-1-yl)-8-fluoro-4-(3-hydroxy-3-methylpiperidin-1-yl)pyrido[4,3-d]pyrimidin-2-yl)oxy)methyl)cyclopropyl)methyl)piperazin-1-yl)methyl)-3-azaspiro[5.5]undecane-3-carbonyl)-2-methoxyphenyl)dihydropyrimidine-2,4(1H,3H)-dione]"

# Continued, molecule first:
SMILES,DC50 [1],Dmax [1],DC50 [2],Dmax [2],DC50 [3],Dmax [3],IC50 [4],DC50 [5],Dmax [5]
"C#Cc1c(F)ccc2cc(O)cc(-c3ncc4c(N5CCC[C@@](C)(O)C5)nc(OCC5(CN6CCN(CC7CCC8(CC7)CCN(C(=O)c7ccc(Cl)c(N9CCC(=O)NC9=O)c7)CC8)CC6)CC5)nc4c3F)c12 [Example 1, (R)-1-(2-chloro-5-(9-((4-((1-(((7-(8-ethynyl-7-fluoro-3-hydroxynaphthalen-1-yl)-8-fluoro-4-(3-hydroxy-3-methylpiperidin-1-yl)pyrido[4,3-d]pyrimidin-2-yl)oxy)methyl)cyclopropyl)methyl)piperazin-1-yl)methyl)-3-azaspiro[5.5]undecane-3-carbonyl)phenyl)dihydropyrimidine-2,4(1H,3H)-dione]",≤ 50 nM,80 to 100%,≤ 50 nM,80 to 100%,≤ 50 nM,80 to 100%,≤ 50 nM,≤ 50 nM,80 to 100%
"CCc1c(F)ccc2cc(O)cc(-c3ncc4c(N5CCC[C@@](C)(O)C5)nc(OCC5(CN6CCN(CC7CCC8(CC7)CCN(C(=O)c7ccc(Cl)c(N9CCC(=O)NC9=O)c7)CC8)CC6)CC5)nc4c3F)c12 [Example 2, (R)-1-(2-chloro-5-(9-((4-((1-(((7-(8-ethyl-7-fluoro-3-hydroxynaphthalen-1-yl)-8-fluoro-4-(3-hydroxy-3-methylpiperidin-1-yl)pyrido[4,3-d]pyrimidin-2-yl)oxy)methyl)cyclopropyl)methyl)piperazin-1-yl)methyl)-3-azaspiro[5.5]undecane-3-carbonyl)phenyl)dihydropyrimidine-2,4(1H,3H)-dione]",,,≤ 50 nM,80 to 100%,,,≤ 50 nM,,
"C#Cc1c(F)ccc2cc(O)cc(-c3ncc4c(N5CCC[C@@](C)(O)C5)nc(OCC5(CN6CCN(CC7CCC8(CC7)CCN(C(=O)c7ccc(C)c(N9CCC(=O)NC9=O)c7)CC8)CC6)CC5)nc4c3F)c12 [Example 6, (R)-1-(5-(9-((4-((1-(((7-(8-ethynyl-7-fluoro-3-hydroxynaphthalen-1-yl)-8-fluoro-4-(3-hydroxy-3-methylpiperidin-1-yl)pyrido[4,3-d]pyrimidin-2-yl)oxy)methyl)cyclopropyl)methyl)piperazin-1-yl)methyl)-3-azaspiro[5.5]undecane-3-carbonyl)-2-methylphenyl)dihydropyrimidine-2,4(1H,3H)-dione]",≤ 50 nM,80 to 100%,≤ 50 nM,80 to 100%,≤ 50 nM,80 to 100%,≤ 50 nM,≤ 50 nM,80 to 100%
"C#Cc1cccc2cc(O)cc(-c3ncc4c(N5CCC[C@@](C)(O)C5)nc(OCC5(CN6CCN(CC7CCC8(CC7)CCN(C(=O)c7ccc(Cl)c(N9CCC(=O)NC9=O)c7)CC8)CC6)CC5)nc4c3F)c12 [Example 11, (R)-1-(2-chloro-5-(9-((4-((1-(((7-(8-ethynyl-3-hydroxynaphthalen-1-yl)-8-fluoro-4-(3-hydroxy-3-methylpiperidin-1-yl)pyrido[4,3-d]pyrimidin-2-yl)oxy)methyl)cyclopropyl)methyl)piperazin-1-yl)methyl)-3-azaspiro[5.5]undecane-3-carbonyl)phenyl)dihydropyrimidine-2,4(1H,3H)-dione]",,,≤ 50 nM,80 to 100%,,,≤ 50 nM,,
